Results reported in patent US7196105B2, “Treatment of human multiple myeloma by curcumin” (Research Development Foundation, priority 2002, dated 2007).

Assays:
IκBα phosphorylation = assay: Western blot for phosphorylated IκBα in U266 cells; assay type: cell-based, human; conditions: curcumin 50 μM, time course
Description: FIG. 3A: Level of phosphorylated IκBα determined by Western blotting. FIG. 3B: Immunoprecipitated IκB kinase and kinase assay of IκB kinase activity (upper panel) or Western blotting for the analysis of total IKKα and IKKβ proteins in cytoplasmic extracts (lower panel). FIG. 3C: IκB kinase was immunoprecipitated and kinase assay was performed in the absence or presence of the indicated concentrations of curcumin (upper panel). Lower panel indicates the amount of GST-IκBα protein stained with Coomassie Blue in each well in the same dried gel. Thirty to fifty micrograms of cytoplasmic protein extracts prepared as described (Chaturvedi et al., 2000) were resolved on 10% SDS-PAGE gel. After electrophoresis, the proteins were electrotransferred to a nitrocellulose membrane, blocked with 5% nonfat milk, and probed with antibodies against either IkBa, phospho-IkBa, Bcl-2, Bcl-xL, or cyclin D1 (1:3000) for 1 h. Thereafter, the blot was washed, exposed to HRP-conjugated secondary antibodies for 1 h, and finally detected by chemiluminescence (ECL, Amersham Pharmacia Biotech., Arlington Heights, Ill.).

Bcl-xL = assay: Western blot for NF-κB-regulated gene product Bcl-xL in U266 cells; assay type: cell-based, human; conditions: curcumin 50 μM, time course
Description: Sixty micrograms of cytoplasmic extracts were resolved on 10% SDS-PAGE gel, electrotransferred on a nitrocellulose membrane, and probed for the following: IκBα (FIG. 4A); Bcl-2 (FIG. 4B); Bcl-xL (FIG. 4C) and cyclin D1 (FIG. 4D). The same blots were stripped and reprobed with anti-β-actin antibody to show equal protein loading (lower panel in each figure). FIG. 4E: […] U266, MM.1 or RPMI 8226 cells (1×10^7) were treated with curcumin ([…]) in 5 ml of medium for the indicated times. Supernatants were harvested and concentrated approximately 20×, and IL-6 was quantitated by an IL-6 ELISA kit. Values shown were normalized to 1 ml of un-concentrated supernatants. Thirty to fifty micrograms of cytoplasmic protein extracts prepared as described (Chaturvedi et al., 2000) were resolved on 10% SDS-PAGE gel. After electrophoresis, the proteins were electrotransferred to a nitrocellulose membrane, blocked with 5% nonfat milk, and probed with antibodies against either IkBa, phospho-IkBa, Bcl-2, Bcl-xL, or cyclin D1 (1:3000) for 1 h. Thereafter, the blot was washed, exposed to HRP-conjugated secondary antibodies for 1 h, and finally detected by chemiluminescence (ECL, Amersham Pharmacia Biotech., Arlington Heights, Ill.).

STAT3 = assay: Immunocytochemistry for STAT3 in bone marrow CD138+ cells from multiple myeloma patients; assay type: cell-based, human; conditions: patients #5, #9 and #10, 50 μM curcumin, 2 h (legend b30: 1 h)
Description: The cells were fixed on slides by cytospin centrifugation and immuno-stained for NF-κB or STAT3. Red stain indicates specific staining for NF-κB or STAT3, whereas blue stain indicates the relative position of the nuclei in the corresponding view.
Red stain indicates the specific staining for NF-κB or STAT3 as indicated, whereas blue stain indicates the relative position of the nuclei in the corresponding view.
Untreated or treated multiple myeloma cells were plated on a poly-L-lysine-coated glass slide by centrifugation using a Cytospin 4 (Thermoshendon, Pittsburg, Pa.), air-dried for 1 h at room temperature, and fixed with cold acetone. After a brief washing in PBS, slides were blocked with 5% normal goat serum for 1 h and then incubated either with rabbit polyclonal anti-human NF-κB p65 antibody (SC-109; dilution, 1:100) or with anti-human STAT3 antibody (SC-482; dilution, 1:100). After overnight incubation, the slides were washed and then incubated with goat anti-rabbit IgG-Alexa 594 (A-11037; dilution, 1:100) for 1 h and counter-stained for nuclei with Hoechst (50 ng/ml) for 5 min. Stained slides were mounted with mounting medium (Sigma Colo.) and analyzed under an epifluorescence microscope (Labophot-2, Nikon, Tokyo, Japan). […]

PARP = assay: Western blot for PARP cleavage (apoptosis); assay type: cell-based, human; conditions: U266, curcumin 50 μM, time course
Description: The cells were washed and total proteins were extracted by lysing the cells. Sixty microgram of extracts were resolved on 10% SDS-PAGE gel, electrotransferred to a nitrocellulose membrane, and probed with anti-procaspase-9 (FIG. 6C), anti-procaspase-7 (FIG. 6D), anti-PARP (FIG. 6E, upper panel) and anti-cleaved PARP (FIG. 6E, lower penal). […] Lysates were then spun at 14000 rpm for 10 min to remove insoluble material, resolved on 7.5% gel and probed with PARP antibodies. PARP was cleaved from the 116-kDa intact protein into 85-kDa and 40-kDa peptide products. To detect cleavage products of procaspase 7 and procaspase 9, whole cell extracts were resolved on 10% gel and probed with appropriate antibodies.

IκB kinase = target: T1, IκB kinase (Homo sapiens, UniProt O14920+O15111); assay: IκB kinase assay on IKK immunoprecipitated from curcumin-treated U266 cells; assay type: cell-based; conditions: curcumin 50 μM, time course, GST-IκBα substrate
T1 construct: 200 μg cytoplasmic extracts were immunoprecipitated with 1 μg of anti-IKKa and IKKb antibodies each; endogenous in cells; host or cells: U266 human multiple myeloma cells (cytoplasmic extract, immunoprecipitate on protein A/G-Sepharose)
T1 sequence (O15111 whole entry): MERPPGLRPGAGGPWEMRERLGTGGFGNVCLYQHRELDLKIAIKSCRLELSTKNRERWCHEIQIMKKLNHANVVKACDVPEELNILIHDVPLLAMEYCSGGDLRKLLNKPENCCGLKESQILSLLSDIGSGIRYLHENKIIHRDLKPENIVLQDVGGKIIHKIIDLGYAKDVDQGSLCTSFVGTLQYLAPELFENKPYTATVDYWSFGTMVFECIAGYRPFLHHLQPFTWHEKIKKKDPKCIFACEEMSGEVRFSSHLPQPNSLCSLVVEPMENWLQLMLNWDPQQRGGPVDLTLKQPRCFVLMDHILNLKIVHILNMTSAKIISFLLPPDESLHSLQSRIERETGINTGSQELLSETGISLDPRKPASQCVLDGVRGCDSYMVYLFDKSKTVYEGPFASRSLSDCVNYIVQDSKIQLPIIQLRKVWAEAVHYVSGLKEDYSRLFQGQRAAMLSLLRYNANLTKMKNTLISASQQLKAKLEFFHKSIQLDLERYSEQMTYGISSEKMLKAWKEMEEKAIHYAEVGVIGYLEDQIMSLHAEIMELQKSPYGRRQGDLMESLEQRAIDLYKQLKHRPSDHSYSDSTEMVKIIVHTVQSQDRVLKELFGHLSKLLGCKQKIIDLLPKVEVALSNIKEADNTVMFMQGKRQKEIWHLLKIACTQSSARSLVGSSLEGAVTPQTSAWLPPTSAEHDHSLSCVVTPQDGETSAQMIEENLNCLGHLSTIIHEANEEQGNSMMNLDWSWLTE
T1 sequence (O14920 whole entry): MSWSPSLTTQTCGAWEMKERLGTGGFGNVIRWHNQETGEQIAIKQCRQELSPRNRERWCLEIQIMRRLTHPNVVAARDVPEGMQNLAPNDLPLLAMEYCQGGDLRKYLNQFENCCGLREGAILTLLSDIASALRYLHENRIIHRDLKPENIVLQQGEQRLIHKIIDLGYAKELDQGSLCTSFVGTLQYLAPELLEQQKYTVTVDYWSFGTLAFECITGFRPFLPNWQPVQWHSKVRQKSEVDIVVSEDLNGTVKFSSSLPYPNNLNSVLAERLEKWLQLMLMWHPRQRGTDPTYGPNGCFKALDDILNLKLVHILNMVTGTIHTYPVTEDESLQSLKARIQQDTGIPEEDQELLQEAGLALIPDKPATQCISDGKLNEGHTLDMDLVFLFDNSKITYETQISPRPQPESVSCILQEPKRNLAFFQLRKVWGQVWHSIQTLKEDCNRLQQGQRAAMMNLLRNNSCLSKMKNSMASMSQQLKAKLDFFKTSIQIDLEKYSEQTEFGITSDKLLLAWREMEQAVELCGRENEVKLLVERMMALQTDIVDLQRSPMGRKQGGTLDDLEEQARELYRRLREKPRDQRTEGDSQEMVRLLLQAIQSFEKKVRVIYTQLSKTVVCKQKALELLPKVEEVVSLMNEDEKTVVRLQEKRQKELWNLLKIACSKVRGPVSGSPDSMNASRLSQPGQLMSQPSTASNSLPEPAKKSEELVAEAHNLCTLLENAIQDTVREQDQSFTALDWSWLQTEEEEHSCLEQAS
T1 sequence (Q9Y6K9 whole entry partner): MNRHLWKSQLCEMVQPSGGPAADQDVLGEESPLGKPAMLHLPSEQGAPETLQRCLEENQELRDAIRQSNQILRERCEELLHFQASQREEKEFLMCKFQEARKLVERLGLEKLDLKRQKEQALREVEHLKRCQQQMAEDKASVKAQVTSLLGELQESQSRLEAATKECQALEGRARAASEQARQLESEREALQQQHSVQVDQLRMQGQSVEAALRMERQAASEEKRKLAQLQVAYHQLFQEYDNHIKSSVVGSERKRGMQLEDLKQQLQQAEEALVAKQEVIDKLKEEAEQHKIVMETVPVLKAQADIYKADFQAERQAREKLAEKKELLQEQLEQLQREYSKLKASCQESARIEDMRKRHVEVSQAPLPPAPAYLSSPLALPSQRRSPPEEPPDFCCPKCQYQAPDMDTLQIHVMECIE
Description: Five million U266 cells/2.5 ml were treated with curcumin (50 μM) for the indicated times and cytoplasmic extracts were prepared. FIG. 3A: Level of phosphorylated IκBα determined by Western blotting. FIG. 3B: Immunoprecipitated IκB kinase and kinase assay of IκB kinase activity (upper panel) or Western blotting for the analysis of total IKKα and IKKβ proteins in cytoplasmic extracts (lower panel). FIG. 3C: IκB kinase was immunoprecipitated and kinase assay was performed in the absence or presence of the indicated concentrations of curcumin (upper panel). Lower panel indicates the amount of GST-IκBα protein stained with Coomassie Blue in each well in the same dried gel.
The IkB kinase assay was performed with a modified method as described earlier (Manna et al., 2000). Briefly, 200 μg cytoplasmic extracts were immunoprecipitated with 1 μg of anti-IKKa and IKKb antibodies each, and the immune complexes so formed were precipitated with 0.01 ml of protein A/G-Sepharose beads for 2 hour. The beads were washed first with lysis buffer and then with kinase assay buffer (50 mM HEPES pH 7.4, 20 mM MgCl2, and 2 mM DTT). The immune complex was then assayed for kinase activity using kinase assay buffer containing […] [g-P^32]ATP, 10 μM unlabeled ATP, and 2 μg/sample glutathione S-transferase-IkBa (1–54). […] Radioactive bands of the dried gel were visualized and quantitated by PhosphorImager.

IκB kinase activity of IKK immunoprecipitated from treated cells (IκB kinase): decreased in kinase activity
SMILES: COc1cc(/C=C/C(=O)CC(=O)/C=C/c2ccc(O)c(OC)c2)ccc1O [curcumin, diferuloylmethane]
phosphorylated IκBα content (IκBα phosphorylation): decreased rapidly | Bcl-xL protein level (Bcl-xL): only a partial decline | constitutive STAT3 activation (nuclear localization) (STAT3): downregulated this transcripion factor | PARP cleavage (PARP): cleavage of a 118-kDa PARP protein into an 89-kDa fragment
